Values of other authors as cited in patent US20210009750A1, “3D PRINTING COMPOSITION FOR BIOMATERIALS” (TISSIUM SA, priority 2018, published 2021).

Tested on: mammalian cell types
Settings: broad range of mammalian cell types and species

In the case of `CC(C)(O)C(=O)c1ccc(OCCO)cc1` [Irgacure 2959, 2-hydroxy-1-[4-(hydroxyethoxy)phenyl]-2-methyl-1-propanone], the “cytotoxicity (cell death)” value is given as “minimal cytotoxicity”.
